Test results taken from ChEMBL document CHEMBL6103552, “Identification of peptide-based hepatitis B virus capsid inhibitors based on the viral core protein” (Bioorg Med Chem Lett, 2025).
Active and inactive are the calls of the source. No rule for the calls is given here. Residues, ends and D or L forms follow the SMILES beside them.

Each compound was assayed against Core antigen (Hepatitis B virus) (UniProt Q03732) (assay: Inhibition of Hepatitis B virus capsid formation at 100 uM treated during cell-free wild type HBV Cp synthesis using wheat germ lysates and HBV Cp RNA by Native capsid assay based western blot analysis).
Format: subcellular

Chain of Core antigen (Hepatitis B virus) (Q03732 as listed by the source): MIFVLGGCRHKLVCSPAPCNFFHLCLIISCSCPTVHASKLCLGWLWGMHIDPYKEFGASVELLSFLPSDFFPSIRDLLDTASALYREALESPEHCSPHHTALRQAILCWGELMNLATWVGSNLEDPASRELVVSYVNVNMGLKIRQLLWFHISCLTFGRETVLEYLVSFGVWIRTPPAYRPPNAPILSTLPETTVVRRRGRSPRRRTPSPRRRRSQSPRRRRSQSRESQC

Structure (SMILES) | inhibition
CC(=O)N[C@@H](CO)C(=O)N[C@H](C(=O)N[C@@H](CC(C)C)C(=O)N1CCC[C@H]1C(=O)N[C@@H](CCC(=O)O)C(=O)N[C@H](C(=O)N[C@H](C(=O)N[C@H](C(=O)N[C@H](C(=O)N[C@@H](CCCNC(=N)N)C(=O)N[C@@H](CCCNC(=N)N)C(=O)N[C@@H](CCCNC(=N)N)C(=O)NCC(=O)N[C@@H](CCCNC(=N)N)C(=O)N[C@@H](CO)C(N)=O)C(C)C)C(C)C)[C@@H](C)O)[C@@H](C)O)[C@@H](C)O | inactive
CC(=O)N[C@@H](C)C(=O)N[C@@H](CC(C)C)C(=O)N[C@@H](CCC(=O)O)C(=O)N[C@@H](CO)C(=O)N1CCC[C@H]1C(=O)N[C@@H](CCC(=O)O)C(=O)N[C@@H](Cc1c[nH]cn1)C(=O)N[C@@H](CS)C(=O)N[C@@H](CO)C(=O)N1CCC[C@H]1C(=O)N[C@@H](Cc1c[nH]cn1)C(=O)N[C@@H](Cc1c[nH]cn1)C(=O)N[C@H](C(=O)N[C@@H](C)C(=O)N[C@@H](CC(C)C)C(N)=O)[C@@H](C)O (Ac-ALESPEHCSPHHTAL-NH2) | inactive
CC(=O)N[C@@H](C)C(=O)N[C@@H](CC(C)C)C(=O)N[C@@H](Cc1ccc(O)cc1)C(=O)N[C@@H](CCCNC(=N)N)C(=O)N[C@@H](CCC(=O)O)C(=O)N[C@@H](C)C(=O)N[C@@H](CC(C)C)C(=O)N[C@@H](CCC(=O)O)C(=O)N[C@@H](CO)C(=O)N1CCC[C@H]1C(=O)N[C@@H](CCC(=O)O)C(=O)N[C@@H](Cc1c[nH]cn1)C(=O)N[C@@H](CS)C(=O)N[C@@H](CO)C(=O)N1CCC[C@H]1C(N)=O (Ac-ALYREALESPEHCSP-NH2) | inactive
CC[C@H](C)[C@H](NC(=O)[C@@H]1CCCN1C(=O)[C@H](C)NC(=O)[C@H](CC(N)=O)NC(=O)[C@@H]1CCCN1C(=O)[C@@H]1CCCN1C(=O)[C@H](CCCNC(=N)N)NC(=O)[C@H](Cc1ccc(O)cc1)NC(=O)[C@H](C)NC(C)=O)C(=O)N[C@@H](CC(C)C)C(=O)N[C@@H](CO)C(=O)N[C@H](C(=O)N[C@@H](CC(C)C)C(=O)N1CCC[C@H]1C(=O)N[C@@H](CCC(=O)O)C(N)=O)[C@@H](C)O (Ac-AYRPPNAPILSTLPE-NH2) | inactive
CC[C@H](C)[C@H](NC(=O)[C@H](C)NC(=O)[C@H](CCC(N)=O)NC(=O)[C@@H]1CCCN1C(=O)[C@H](CC(C)C)NC(=O)[C@H](C)NC(=O)[C@@H](NC(=O)[C@H](Cc1c[nH]cn1)NC(=O)[C@H](Cc1c[nH]cn1)NC(=O)[C@@H]1CCCN1C(=O)[C@H](CO)NC(=O)[C@H](CS)NC(=O)[C@H](Cc1c[nH]cn1)NC(=O)[C@H](CCC(=O)O)NC(C)=O)[C@@H](C)O)C(=O)N[C@@H](CC(C)C)C(N)=O (Ac-EHCSPHHTALPQAIL-NH2) | inactive
CC(=O)NCC(=O)N[C@@H](CCCNC(=N)N)C(=O)N[C@@H](CCC(=O)O)C(=O)N[C@H](C(=O)N[C@H](C(=O)N[C@@H](CC(C)C)C(=O)N[C@@H](CCC(=O)O)C(=O)N[C@@H](Cc1ccc(O)cc1)C(=O)N[C@@H](CC(C)C)C(=O)N[C@H](C(=O)N[C@@H](CO)C(=O)N[C@@H](Cc1ccccc1)C(=O)NCC(=O)N[C@H](C(=O)N[C@@H](Cc1c[nH]c2ccccc12)C(N)=O)C(C)C)C(C)C)C(C)C)[C@@H](C)O (Ac-GRETVLEYLVSFGVW-NH2) | inactive
CC[C@H](C)[C@H](NC(=O)[C@H](C)NC(=O)[C@H](CCC(N)=O)NC(=O)[C@@H]1CCCN1C(=O)[C@H](CC(C)C)NC(=O)[C@H](C)NC(=O)[C@@H](NC(=O)[C@H](Cc1c[nH]cn1)NC(=O)[C@H](Cc1c[nH]cn1)NC(C)=O)[C@@H](C)O)C(=O)N[C@@H](CC(C)C)C(=O)N[C@@H](CS)C(=O)N[C@@H](Cc1c[nH]c2ccccc12)C(=O)NCC(=O)N[C@@H](CCC(=O)O)C(=O)N[C@@H](CC(C)C)C(N)=O (Ac-HHTALPQAILCWGEL-NH2) | inactive
CC[C@H](C)[C@H](NC(C)=O)C(=O)N[C@@H](CCCNC(=N)N)C(=O)N[C@H](C(=O)N1CCC[C@H]1C(=O)N1CCC[C@H]1C(=O)N[C@@H](C)C(=O)N[C@@H](Cc1ccc(O)cc1)C(=O)N[C@@H](CCCNC(=N)N)C(=O)N1CCC[C@H]1C(=O)N1CCC[C@H]1C(=O)N[C@@H](CC(N)=O)C(=O)N[C@@H](C)C(=O)N1CCC[C@H]1C(=O)N[C@H](C(=O)N[C@@H](CC(C)C)C(N)=O)[C@@H](C)CC)[C@@H](C)O (Ac-IRTPPAYRPPNAPIL-NH2) | inactive
CC(=O)N[C@@H](CC(C)C)C(=O)N[C@@H](CC(=O)O)C(=O)N[C@H](C(=O)N[C@@H](C)C(=O)N[C@@H](CO)C(=O)N[C@@H](C)C(=O)N[C@@H](CC(C)C)C(=O)N[C@@H](Cc1ccc(O)cc1)C(=O)N[C@@H](CCCNC(=N)N)C(=O)N[C@@H](CCC(=O)O)C(=O)N[C@@H](C)C(=O)N[C@@H](CC(C)C)C(=O)N[C@@H](CCC(=O)O)C(=O)N[C@@H](CO)C(=O)N1CCC[C@H]1C(N)=O)[C@@H](C)O (Ac-LDTASALYREALESP-NH2) | inactive
CC[C@H](C)[C@H](NC(=O)[C@H](Cc1c[nH]c2ccccc12)NC(=O)[C@@H](NC(=O)CNC(=O)[C@H](Cc1ccccc1)NC(=O)[C@H](CO)NC(=O)[C@@H](NC(=O)[C@H](CC(C)C)NC(=O)[C@H](Cc1ccc(O)cc1)NC(=O)[C@H](CCC(=O)O)NC(=O)[C@H](CC(C)C)NC(C)=O)C(C)C)C(C)C)C(=O)N[C@@H](CCCNC(=N)N)C(=O)N[C@H](C(=O)N1CCC[C@H]1C(=O)N1CCC[C@H]1C(N)=O)[C@@H](C)O (Ac-LEYLVSFGVWIRTPP-NH2) | inactive
CC[C@H](C)[C@H](NC(=O)[C@H](Cc1c[nH]cn1)NC(=O)[C@H](Cc1ccccc1)NC(=O)[C@H](Cc1c[nH]c2ccccc12)NC(=O)[C@H](CC(C)C)NC(C)=O)C(=O)N[C@@H](CO)C(=O)N[C@@H](CS)C(=O)N[C@@H](CC(C)C)C(=O)N[C@H](C(=O)N[C@@H](Cc1ccccc1)C(=O)NCC(=O)N[C@@H](CCCNC(=N)N)C(=O)N[C@@H](CCC(=O)O)C(=O)N[C@H](C(=O)N[C@H](C(N)=O)C(C)C)[C@@H](C)O)[C@@H](C)O (Ac-LWFHISCLTFGRETV-NH2) | inactive
CC(=O)N1CCC[C@H]1C(=O)N[C@@H](CCCNC(=N)N)C(=O)N[C@@H](CCCNC(=N)N)C(=O)N[C@@H](CCCNC(=N)N)C(=O)N[C@@H](CCCNC(=N)N)C(=O)N[C@@H](CO)C(=O)N[C@@H](CCC(N)=O)C(=O)N[C@@H](CO)C(=O)N[C@@H](CCCNC(=N)N)C(=O)N[C@@H](CCC(=O)O)C(=O)N[C@@H](CO)C(=O)N[C@@H](CCC(N)=O)C(=O)N[C@@H](CS)C(N)=O (Ac-PRRRRSQSRESQC-NH2) | inactive
CC(=O)N1CCC[C@H]1C(=O)N[C@@H](CCCNC(=N)N)C(=O)N[C@@H](CCCNC(=N)N)C(=O)N[C@@H](CCCNC(=N)N)C(=O)N[C@H](C(=O)N1CCC[C@H]1C(=O)N[C@@H](CO)C(=O)N1CCC[C@H]1C(=O)N[C@@H](CCCNC(=N)N)C(=O)N[C@@H](CCCNC(=N)N)C(=O)N[C@@H](CCCNC(=N)N)C(=O)N[C@@H](CCCNC(=N)N)C(=O)N[C@@H](CO)C(=O)N[C@@H](CCC(N)=O)C(=O)N[C@@H](CO)C(N)=O)[C@@H](C)O (Ac-PRRRTPSPRRRRSQS-NH2) | inactive
CC(=O)N1CCC[C@H]1C(=O)N[C@@H](CO)C(=O)N1CCC[C@H]1C(=O)N[C@@H](CCCNC(=N)N)C(=O)N[C@@H](CCCNC(=N)N)C(=O)N[C@@H](CCCNC(=N)N)C(=O)N[C@@H](CCCNC(=N)N)C(=O)N[C@@H](CO)C(=O)N[C@@H](CCC(N)=O)C(=O)N[C@@H](CO)C(=O)N1CCC[C@H]1C(=O)N[C@@H](CCCNC(=N)N)C(=O)N[C@@H](CCCNC(=N)N)C(=O)N[C@@H](CCCNC(=N)N)C(=O)N[C@@H](CCCNC(=N)N)C(N)=O (Ac-PSPRRRRSQSPRRRR-NH2) | inactive
CC(=O)N[C@@H](CCC(N)=O)C(=O)N[C@@H](CO)C(=O)N1CCC[C@H]1C(=O)N[C@@H](CCCNC(=N)N)C(=O)N[C@@H](CCCNC(=N)N)C(=O)N[C@@H](CCCNC(=N)N)C(=O)N[C@@H](CCCNC(=N)N)C(=O)N[C@@H](CO)C(=O)N[C@@H](CCC(N)=O)C(=O)N[C@@H](CO)C(=O)N[C@@H](CCCNC(=N)N)C(=O)N[C@@H](CCC(=O)O)C(=O)N[C@@H](CO)C(=O)N[C@@H](CCC(N)=O)C(=O)N[C@@H](CS)C(N)=O (Ac-QSPRRRRSQSRESQC-NH2) | inactive
CC(=O)N[C@@H](CCCNC(=N)N)C(=O)N[C@@H](CCCNC(=N)N)C(=O)NCC(=O)N[C@@H](CCCNC(=N)N)C(=O)N[C@@H](CO)C(=O)N1CCC[C@H]1C(=O)N[C@@H](CCCNC(=N)N)C(=O)N[C@@H](CCCNC(=N)N)C(=O)N[C@@H](CCCNC(=N)N)C(=O)N[C@H](C(=O)N1CCC[C@H]1C(=O)N[C@@H](CO)C(=O)N1CCC[C@H]1C(=O)N[C@@H](CCCNC(=N)N)C(=O)N[C@@H](CCCNC(=N)N)C(N)=O)[C@@H](C)O (Ac-RRGRSPRRRTPSPRR-NH2) | inactive
CC(=O)N[C@@H](CCCNC(=N)N)C(=O)N[C@@H](CCCNC(=N)N)C(=O)N[C@@H](CO)C(=O)N[C@@H](CCC(N)=O)C(=O)N[C@@H](CO)C(=O)N1CCC[C@H]1C(=O)N[C@@H](CCCNC(=N)N)C(=O)N[C@@H](CCCNC(=N)N)C(=O)N[C@@H](CCCNC(=N)N)C(=O)N[C@@H](CCCNC(=N)N)C(=O)N[C@@H](CO)C(=O)N[C@@H](CCC(N)=O)C(=O)N[C@@H](CO)C(=O)N[C@@H](CCCNC(=N)N)C(=O)N[C@@H](CCC(=O)O)C(N)=O (Ac-RRSQSPRRRRSQSRE-NH2) | inactive
CC(=O)N[C@@H](CO)C(=O)N[C@@H](CS)C(=O)N[C@@H](CC(C)C)C(=O)N[C@H](C(=O)N[C@@H](Cc1ccccc1)C(=O)NCC(=O)N[C@@H](CCCNC(=N)N)C(=O)N[C@@H](CCC(=O)O)C(=O)N[C@H](C(=O)N[C@H](C(=O)N[C@@H](CC(C)C)C(=O)N[C@@H](CCC(=O)O)C(=O)N[C@@H](Cc1ccc(O)cc1)C(=O)N[C@@H](CC(C)C)C(=O)N[C@H](C(N)=O)C(C)C)C(C)C)[C@@H](C)O)[C@@H](C)O (Ac-SCLTFGRETVLEYLV-NH2) | inactive
CC(=O)N[C@H](C(=O)N[C@H](C(=O)N[C@H](C(=O)N[C@H](C(=O)N[C@@H](CCCNC(=N)N)C(=O)N[C@@H](CCCNC(=N)N)C(=O)N[C@@H](CCCNC(=N)N)C(=O)NCC(=O)N[C@@H](CCCNC(=N)N)C(=O)N[C@@H](CO)C(=O)N1CCC[C@H]1C(=O)N[C@@H](CCCNC(=N)N)C(=O)N[C@@H](CCCNC(=N)N)C(=O)N[C@@H](CCCNC(=N)N)C(=O)N[C@H](C(N)=O)[C@@H](C)O)C(C)C)C(C)C)[C@@H](C)O)[C@@H](C)O (Ac-TTVVRRRGRSPRRRT-NH2) | inactive
